In patent US9073881B2, “Benzoic acid derivatives” (HOFFMANN-LA ROCHE INC., priority 2011, dated 2015) one finds IC50 data, which are given here for 34 molecules.

For this experiment, the target named is Human eIF4E (Homo sapiens (Human), UniProt P06730). Kind of experiment: Human eIF4E/4G binding assay (time-resolved fluorescence, HH-eIF4E and biotin-labeled 4G2 peptide). To be noted: inhibition of binding of His-tagged human eIF4E (aa 28-217) to biotin-labeled 4G2 peptide. As to the method: The protein was solubilized with 8 M urea and purified under denaturing conditions using nickel-charged HisTrap HP columns (GE Healthcare). The protein was refolded by diluting to approximately 0.25 mg/mL with 6 M urea, 20 mM Hepes pH 7.0, 500 mM NaCl, 1 mM DTT, 1 mM EDTA, and 0.5 M arginine.HCl, and then dialyzing overnight into the same buffer without the urea. The protein was further dialyzed into 20 mM Hepes pH 6.5, 50 mM NaCl, 1 mM EDTA, and 1 mM DTT, filtered, and then concentrated using Hitrap SP sepharose FF columns (GE Healthcare). The protein was dialyzed into 20 mM Hepes pH 7.0, 500 mM NaCl, 5 mM DTT, and 10% glycerol and stored at −80° C. until use. Test compounds (1.6 mM stock in DMSO) were diluted 3 fold in series in DMSO. Compound solutions were diluted 4 fold in Assay Buffer (50 mM sodium phosphate, pH 6.5, 50 mM KCl, 1 mM DTT and 0.5 mg/mL gammaglobulin). […] The samples were incubated at room temperature for 20 minutes. […] IC50 values were calculated using Condoseo software (Genedata AG).
Human eIF4E, sequence (P06730 28-217): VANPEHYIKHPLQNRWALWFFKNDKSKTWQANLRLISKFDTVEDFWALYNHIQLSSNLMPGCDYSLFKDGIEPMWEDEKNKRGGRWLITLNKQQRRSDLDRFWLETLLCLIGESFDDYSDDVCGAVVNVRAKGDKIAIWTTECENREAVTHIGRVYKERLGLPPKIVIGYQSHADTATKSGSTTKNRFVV

`O=C(O)c1cc(-c2nc(-c3ccc(OC(F)(F)F)cc3)cs2)ccc1-c1ccccc1[N+](=O)[O-]` [Example 2, 2′-Nitro-4-[4-(4-trifluoromethoxy-phenyl)-thiazol-2-yl]-biphenyl-2-carboxylic acid] registered an IC50 of 2.6 µM.

Turning to `O=C(O)c1cc(-c2nc(-c3ccc(OC(F)F)cc3)cs2)ccc1-c1ccccc1[N+](=O)[O-]` [Example 3, 4-[4-(4-Difluoromethoxy-phenyl)-thiazol-2-yl]-2′-nitro-biphenyl-2-carboxylic acid], the IC50 was found to be 9.9 µM.

`O=C(O)c1cc(-c2nc(-c3ccc(Cl)c(Cl)c3)cs2)ccc1-c1cc(C(F)(F)F)ccc1[N+](=O)[O-]` [Example 4, 4-[4-(3,4-Dichloro-phenyl)-thiazol-2-yl]-2′-nitro-5′-trifluoromethyl-biphenyl-2-carboxylic acid] showed an IC50 of 2 µM.

Turning to `O=C(O)c1cc(-c2nc(-c3ccccc3C(F)(F)F)cs2)ccc1-c1ccccc1[N+](=O)[O-]` [Example 5, 2′-Nitro-4-[4-(2-trifluoromethyl-phenyl)-thiazol-2-yl]-biphenyl-2-carboxylic acid], the IC50 was determined as 23 µM.

`O=C(O)c1cc(-c2nc(-c3cccc(C(F)(F)F)c3)cs2)ccc1-c1ccccc1[N+](=O)[O-]` [Example 6, 2′-Nitro-4-[4-(3-trifluoromethyl-phenyl)-thiazol-2-yl]-biphenyl-2-carboxylic acid] came in with an IC50 of 8.3 µM.

For `O=C(O)c1cc(-c2nc(-c3ccc(C(F)(F)F)cc3)cs2)ccc1-c1ccccc1[N+](=O)[O-]` [Example 7, 2′-Nitro-4-[4-(4-trifluoromethyl-phenyl)-thiazol-2-yl]-biphenyl-2-carboxylic acid], the IC50 was 2.4 µM.

`O=C(O)c1cc(-c2nc(-c3cc(C(F)(F)F)cc(C(F)(F)F)c3)cs2)ccc1-c1ccccc1[N+](=O)[O-]` [Example 8, 4-[4-(3,5-Bis-trifluoromethyl-phenyl)-thiazol-2-yl]-2′-nitro-biphenyl-2-carboxylic acid] registered an IC50 of 2.5 µM.

As to `Cc1cc(-c2csc(-c3ccc(-c4ccccc4[N+](=O)[O-])c(C(=O)O)c3)n2)ccc1Cl` [Example 9, 4-[4-(4-Chloro-3-methyl-phenyl)-thiazol-2-yl]-2′-nitro-biphenyl-2-carboxylic acid], the IC50 came to 5.9 µM.

For `O=C(O)c1cc(-c2nc(-c3ccc(Cl)cc3Cl)cs2)ccc1-c1ccccc1[N+](=O)[O-]` [Example 10, 4-[4-(2,4-Dichloro-phenyl)-thiazol-2-yl]-2′-nitro-biphenyl-2-carboxylic acid], the IC50 stood at 3.5 µM.

The molecule `O=C(O)c1cc(-c2nc(-c3cc(Cl)ccc3Cl)cs2)ccc1-c1ccccc1[N+](=O)[O-]` [Example 12, 4-[4-(2,5-Dichloro-phenyl)-thiazol-2-yl]-2′-nitro-biphenyl-2-carboxylic acid] showed an IC50 of 2.9 µM.

As for `O=C(O)c1cc(-c2nc(-c3ccc(Cl)cc3)cs2)ccc1-c1ccccc1[N+](=O)[O-]` [Example 13, 4-[4-(4-Chloro-phenyl)-thiazol-2-yl]-2′-nitro-biphenyl-2-carboxylic acid], the IC50 amounted to 5.2 µM.

`O=C(O)c1cc(-c2nc(-c3ccc(Cl)c(Cl)c3)cs2)ccc1-c1cc(Cl)ccc1[N+](=O)[O-]` [Example 14, 5′-Chloro-4-[4-(3,4-dichloro-phenyl)-thiazol-2-yl]-2′-nitro-biphenyl-2-carboxylic acid]: the IC50 was 1.3 µM.

`O=C(O)c1cc(-c2nc(-c3ccc(Cl)c(Cl)c3)cs2)ccc1-c1ccccc1[N+](=O)[O-]` [Example 15, 4-[4-(3,4-Dichloro-phenyl)-thiazol-2-yl]-2′-nitro-biphenyl-2-carboxylic acid] came in with an IC50 of 2.8 µM.

Molecule `O=C(O)c1cc(-c2nc(-c3ccc(Cl)c(Cl)c3)cs2)ccc1-c1ccccc1[N+](=O)[O-]` [Example 16, 4-[4-(3,4-Dichloro-phenyl)-thiazol-2-yl]-2′-nitro-biphenyl-2-carboxylic acid] registered an IC50 of 0.5 µM.

Consider `O=C(O)c1cc(-c2nc(-c3cccc(Cl)c3)cs2)ccc1-c1ccccc1[N+](=O)[O-]` [Example 17, 4-[4-(3-Chloro-phenyl)-thiazol-2-yl]-2′-nitro-biphenyl-2-carboxylic acid], for which the IC50 was 3.1 µM.

`O=C(O)c1cc(-c2nc(-c3ccc(F)c(Cl)c3)cs2)ccc1-c1ccccc1[N+](=O)[O-]` [Example 18, 4-[4-(3-Chloro-4-fluoro-phenyl)-thiazol-2-yl]-2′-nitro-biphenyl-2-carboxylic acid]: the IC50 worked out at 5 µM.

With `O=C(O)c1cc(-c2nc(-c3c(F)cccc3F)cs2)ccc1-c1ccccc1[N+](=O)[O-]` [Example 20, 4-[4-(2,6-Difluoro-phenyl)-thiazol-2-yl]-2′-nitro-biphenyl-2-carboxylic acid], the IC50 is more than 80 µM.

For the molecule `O=C(O)c1cc(-c2nc(-c3cccc(F)c3)cs2)ccc1-c1ccccc1[N+](=O)[O-]` [Example 24, 4-[4-(3-Fluoro-phenyl)-thiazol-2-yl]-2′-nitro-biphenyl-2-carboxylic acid], the IC50 came to 2.6 µM.

`O=C(O)c1cc(-c2nc(-c3ccc(Br)s3)cs2)ccc1-c1ccccc1[N+](=O)[O-]` [Example 25, 4-[4-(5-Bromo-thiophen-2-yl)-thiazol-2-yl]-2′-nitro-biphenyl-2-carboxylic acid]: the IC50 came out at 4.4 µM.

Regarding `O=C(O)c1cc(-c2nc(-c3cccc(Br)c3)cs2)ccc1-c1ccccc1[N+](=O)[O-]` [Example 26, 4-[4-(3-Bromo-phenyl)-thiazol-2-yl]-2′-nitro-biphenyl-2-carboxylic acid], the IC50 amounted to 3 µM.

With `O=C(O)c1cc(-c2nc(-c3ccc(Br)cc3)cs2)ccc1-c1ccccc1[N+](=O)[O-]` [Example 27, 4-[4-(4-Bromo-phenyl)-thiazol-2-yl]-2′-nitro-biphenyl-2-carboxylic acid], the IC50 was determined as 4 µM.

Take `COc1ccc(-c2ccc(-c3nc(-c4ccc(Cl)c(Cl)c4)cs3)cc2C(=O)O)c([N+](=O)[O-])c1` [Example 28, 4-[4-(3,4-Dichloro-phenyl)-thiazol-2-yl]-4′-methoxy-2′-nitro-biphenyl-2-carboxylic acid]: the IC50 was 3.2 µM.

The molecule `COc1ccc(-c2csc(-c3ccc(-c4ccccc4[N+](=O)[O-])c(C(=O)O)c3)n2)cc1` [Example 32, 4-[4-(4-Methoxy-phenyl)-thiazol-2-yl]-2′-nitro-biphenyl-2-carboxylic acid] showed an IC50 of 8.3 µM.

Consider `CS(=O)(=O)c1ccc(-c2csc(-c3ccc(-c4ccccc4[N+](=O)[O-])c(C(=O)O)c3)n2)cc1` [Example 33, 4-[4-(4-Methanesulfonyl-phenyl)-thiazol-2-yl]-2′-nitro-biphenyl-2-carboxylic acid], for which the IC50 is more than 80 µM.

`O=C(O)c1cc(-c2nc(-c3ccccn3)cs2)ccc1-c1ccccc1[N+](=O)[O-]` [Example 37, 2′-Nitro-4-(4-pyridin-2-yl-thiazol-2-yl)-biphenyl-2-carboxylic acid] registered an IC50 of more than 80 µM.

Take `O=C(O)c1cc(-c2nc(-c3cccnc3)cs2)ccc1-c1ccccc1[N+](=O)[O-]` [Example 38, 2′-Nitro-4-(4-pyridin-3-yl-thiazol-2-yl)-biphenyl-2-carboxylic acid]: the IC50 was more than 80 µM.

For `O=C(O)c1cc(-c2nc(-c3ccncc3)cs2)ccc1-c1ccccc1[N+](=O)[O-]` [Example 39, 2′-Nitro-4-(4-pyridin-4-yl-thiazol-2-yl)-biphenyl-2-carboxylic acid], the IC50 is more than 80 µM.

Take `Cc1ccc(-c2csc(-c3ccc(-c4ccccc4[N+](=O)[O-])c(C(=O)O)c3)n2)c(C)c1` [Example 40, 4-[4-(2,4-Dimethyl-phenyl)-thiazol-2-yl]-2′-nitro-biphenyl-2-carboxylic acid]: the IC50 came out at 4.2 µM.

For `O=C(O)c1cc(-c2nc(-c3ccc(Cl)c(Cl)c3)cs2)ccc1-c1ccc([N+](=O)[O-])cc1` [Example 45, 4-[4-(3,4-Dichloro-phenyl)-thiazol-2-yl]-4′-nitro-biphenyl-2-carboxylic acid], the IC50 came to 4.1 µM.

As to `O=C(O)c1cc(-c2nc(-c3ccc(Cl)c(Cl)c3)cs2)ccc1-c1cccc([N+](=O)[O-])c1` [Example 46, 4-[4-(3,4-Dichloro-phenyl)-thiazol-2-yl]-3′-nitro-biphenyl-2-carboxylic acid], the half-inhibitory concentration (IC50) was determined as 3.8 µM.

As to `CCN(CC)CCCNC(=O)c1ccc(-c2ccc(-c3nc(-c4ccc(Cl)c(Cl)c4)cs3)cc2C(=O)O)cc1` [Example 47, 4-[4-(3,4-Dichloro-phenyl)-thiazol-2-yl]-4′-(3-diethylamino-propylcarbamoyl)-biphenyl-2-carboxylic acid], the IC50 was more than 80 µM.

Take `CN(C)CCCNC(=O)c1ccc(-c2ccc(-c3nc(-c4ccc(Cl)c(Cl)c4)cs3)cc2C(=O)O)cc1` [Example 48, 4-[4-(3,4-Dichloro-phenyl)-thiazol-2-yl]-4′-(3-dimethylamino-propylcarbamoyl)-biphenyl-2-carboxylic acid]: the IC50 was more than 80 µM.

In the case of `CN(C)CCNC(=O)c1ccc(-c2ccc(-c3nc(-c4ccc(Cl)c(Cl)c4)cs3)cc2C(=O)O)cc1` [Example 49, 4-[4-(3,4-Dichloro-phenyl)-thiazol-2-yl]-4′-(2-dimethylamino-ethylcarbamoyl)-biphenyl-2-carboxylic acid], the IC50 is more than 80 µM.

As to `Cn1nccc1CNC(=O)c1ccc(-c2ccc(-c3nc(-c4ccc(Cl)c(Cl)c4)cs3)cc2C(=O)O)cc1` [Example 50, 4-[4-(3,4-Dichloro-phenyl)-thiazol-2-yl]-4′-[(2-methyl-2H-pyrazol-3-ylmethyl)-carbamoyl]-biphenyl-2-carboxylic acid], the IC50 worked out at 7.8 µM.
